Test results published in publication PMC11187260, “Unraveling the interconversion pharmacokinetics and oral bioavailability of the major ginger constituents: [6]-gingerol, [6]-shogaol, and zingerone after single-dose administration in rats” (Frontiers in Pharmacology, 2024).
Like-named read-outs stand apart in the source and are kept apart here.

What was measured:
Format in all cases: in vivo, Female Sprague Dawley rats
[1] = Safety evaluation: physical appearance and blood chemistry after single i.v. or p.o. dose; details: for ALP / ALT / AST / BUN / Creatinine: post-dose (24 h), mean ± SD n=6; for Physical appearance: post-dose
Description: (§1) This study is composed of two sections; the first section involves an investigation of the interconversion pharmacokinetics of the pure compounds, and the second focuses on tissue distribution. All rats were transferred to metabolic cages and fasted overnight for at least 10 h. The animals were then randomly divided into four groups (6 rats/group) to receive a single intravenous (i.v.) administration of either 6G, 6S, zingerone, or vehicle via the lateral tail vein at a dosage of 3 mg/kg. After a 7-week washout period, the rats received 30 mg/kg of the same test compounds through a single oral (p.o.) administration. Following each administration, blood samples (300 µL) were collected in heparinized tubes from the lateral tail vein (while rats were under anesthesia with isoflurane) at specified time points: 0.083, 0.25, 0.5, 1, 1.5, 2, 3, 4, 6, 8, and 24 h after administration. An additional 1 mL of blood sample was collected from each rat at pre-dose (0 h) and post-dose (24 h) for clinical laboratory testing and safety evaluation. All heparinized blood samples were initially centrifuged at 5,000 × g, 4 °C, for 10 min. Subsequently, the plasma was carefully transferred to a cryotube as an aliquot sample and then stored at −40 °C until analysis. Urine and feces were collected during the intervals of 0–24 h and 24–48 h post-dosing, and their weights and volumes were documented. All collected urine and feces samples were stored at −40 °C until analysis.
Plasma samples were collected at baseline (T0) and T24 h for the determination of blood chemistry, including levels of blood urea nitrogen (BUN), creatinine, aspartate transaminase (AST), alanine transaminase (ALT), and alkaline phosphatase (ALP). The analyses were conducted by the Exclusive Veterinary Professional Laboratory Center (Bangkok, Thailand). The creatinine level was determined using an enzymatic oxidase assay, while AST and ALT levels were determined using the procedure of the International Federation of Clinical Chemistry (IFCC) without pyridoxal phosphate activation.

[2] = Interconversion clearance between 6G and 6S after intravenous administration; details: female, Sprague-Dawley, rat, plasma, iv; single i.v. 3 mg/kg; read-out: CL20 (irreversible elimination clearance of 6S) (converted)
Description: The interconversion between 6G and 6S was determined using previously published methods ([Ebling and Jusko, 1986]; [Prueksaritanont et al., 2005]). The clearance of 6G biotransformed into 6S was calculated as CL12, while the reverse clearance (6S → 6G) was calculated as CL21. The irreversible elimination clearances of 6G and 6S were calculated as CL10 and CL20, respectively. The following equations were used in accordance with the notation provided in Supplementary Table S3. CL12=Dose^shogaol […] CL21=Dose^gingerol […] CL10=Dose^gingerol x AUCshogaolshogaol- Dose^shogaol […] CL20=Dose^shogaol […]- Dose^gingerol […]

[3] = Pharmacokinetics and oral bioavailability after single oral administration (30 mg/kg), plasma LC-MS/MS; details: for bioavailability / AUC(0-inf) / AUC(0-t) / Tmax: plasma, 30 mg/kg; for AUC(0-t): read-out: AUC(0-t); for Tmax: median [IQR]
Description: as §1
Plasma samples were processed through protein precipitation. In brief, 50 µL of plasma was mixed with 200 µL of methanol containing 50 ng/mL of IS (dihydrocapsaicin). The mixtures were vortexed and centrifuged at 14,000 × g at 4 °C for 10 min. The supernatant was filtered through a […] PVDF membrane (Chrome Tech, MN, USA) before analysis.
(§2) Investigation of glucuronide conjugations followed a previously published method with some modification ([Wang et al., 2017]; [Songvut et al., 2023]). A 50 μL aliquot of plasma, urine, or feces sample was incubated at 37 °C for a minimum of 30 min with 50 μL of β-glucuronidase (3,000 U/mL) in a sodium phosphate buffer (pH 6.8). For sample extraction, 150 μL of methanol containing 50 μg/L of IS was pipetted into the pre-incubated samples. Subsequently, the mixtures were vortexed for 10 min and then centrifuged at 14,000 × g at 4 °C for 10 min. The supernatants were filtered through a […] PVDF membrane (Chrome Tech, MN, United States) and then analyzed using the validated LC-MS/MS method.
Quantitative analysis was conducted using liquid chromatography-tandem mass spectrometry (LC-MS/MS) with a Nexera X2 LCMS-8060NX instrument (Shimadzu, Japan). The instrument included a CBM-40lite system controller, CTO-40C column oven, SIL-40C XR autosampler, LC-40D XR solvent pump unit, FCV-DGU-403 degasser, and 20AH2 switching valve. The LC-MS/MS system was operated with a binary pump and equipped with a triple quadrupole mass spectrometer.
Pharmacokinetic parameters were assessed using PK Solutions software (version 2.0) with non-compartmental analysis. The AUC was calculated using the Linear-Log Trapezoidal Method. The maximum plasma concentration (Cmax) and time to reach maximum plasma concentration (Tmax) were taken directly from the graph.
(§3) Plasma concentration-time profiles were plotted using GraphPad Prism 9.3.0 (GraphPad Software, USA). The absolute oral bioavailability was calculated as follows: F = (AUC p.o./dose p.o.)/(AUC i.v./dose i.v.). The percentage recovery of each administered compound was calculated as the total amount of the drug found in urine or feces divided by the administered dose. The tissue-to-plasma concentration ratios (K p) were calculated by dividing the concentration in the tissue by the corresponding plasma concentration at the respective sampling time point.

[4] = Percent recovery in urine and feces after intravenous or oral administration; details: for dose excreted: female, Sprague Dawley, rat, % of administered dose
Description: as §1
Urine samples were centrifuged, and 50 µL of urine was extracted with 200 µL of 100% methanol. The mixture was vortexed for 10 min and subsequently centrifuged at 14,000 × g at 4 °C for 10 min. Feces and organs were weighed and homogenized with methanol (50:50% w/v). The supernatants of the extracted urine, feces, and organs were also filtered through a […] PVDF membrane (Chrome Tech, MN, USA) before analysis.
as §2, §3

[5] = female, Sprague-Dawley, rat, po, plasma analyte after [6]-gingerol p.o. 30 mg/kg, mean ± SD n=6
[6] = female, Sprague-Dawley, rat, po, plasma analyte after [6]-shogaol p.o. 30 mg/kg, mean ± SD n=6

CCCCC/C=C/C(=O)CCc1ccc(O)c(OC)c1 [[6]-shogaol]
ALP ([1]; i.v. 3 mg/kg): 49.50 ± 14.46 U/L
ALT ([1]; i.v. 3 mg/kg): 18.83 ± 3.92 U/L
AST ([1]; i.v. 3 mg/kg): 59.50 ± 5.61 U/L
BUN ([1]; i.v. 3 mg/kg): 14.17 ± 1.72 mg/dL
Creatinine ([1]; i.v. 3 mg/kg): 0.73 ± 0.02 mg/dL
ALP ([1]; p.o. 30 mg/kg): 39.17 ± 11.20 U/L
ALT ([1]; p.o. 30 mg/kg): 22.50 ± 5.89 U/L
AST ([1]; p.o. 30 mg/kg): 63.83 ± 11.77 U/L
BUN ([1]; p.o. 30 mg/kg): 14.00 ± 2.00 mg/dL
Creatinine ([1]; p.o. 30 mg/kg): 0.71 ± 0.02 mg/dL
Physical appearance ([1]; i.v. 3 mg/kg): Normal
Physical appearance ([1]; p.o. 30 mg/kg): Normal
Tolerability ([1]; single i.v. 3 mg/kg or p.o. 30 mg/kg): exhibited tolerance
clearance [2]: 11.3 mL/min/kg
bioavailability ([3]; female, Sprague-Dawley, rat, po, p.o. 30 mg/kg vs i.v. 3 mg/kg of the pure compound, mean ± SD n=6, read-out: %Oral bioavailability): 0.15 ± 0.1%
bioavailability ([3]; female, Sprague-Dawley, rat, po, p.o. 30 mg/kg vs i.v. 3 mg/kg of the pure compound, range among rats, read-out: %Oral bioavailability (range)): 0.1 to 0.31%
bioavailability ([3]; female, Sprague-Dawley, rat, po, p.o. 30 mg/kg vs i.v. 3 mg/kg, pure compounds, read-out: absolute oral bioavailability (upper bound)): < 2%
AUC(0-inf) [3, 5]: 10.3 ± 4.14 ng·h/mL
AUC(0-t) [3, 5]: 10.2 ± 4.01 ng·h/mL
Tmax ([3]; female, Sprague-Dawley, rat, po, plasma analyte after [6]-gingerol p.o. 30 mg/kg): 15 min
AUC(0-inf) [3, 6]: 66.9 ± 30.5 ng·h/mL
AUC(0-t) [3, 6]: 66.9 ± 30.5 ng·h/mL
Tmax ([3]; female, Sprague-Dawley, rat, po, plasma analyte after [6]-shogaol p.o. 30 mg/kg): 45 min
Cmax [3, 6]: 51.8 ± 20.9 ng/mL
presence of parent compound in plasma ([3]; following oral administration): up to 4 h
parent compound recovered in urine ([4]; during 24–48 h): less than 1%
dose excreted ([4]; feces, iv, 3 mg/kg, intravenous administration 3 mg/kg of parent compound, read-out: % Recovery excretion, feces T 0–24 h): < 0.001%
dose excreted ([4]; feces, po, 30 mg/kg, oral administration 30 mg/kg of parent compound, read-out: % Recovery excretion, feces T 0–24 h): 0.001 ± 0.001%
dose excreted ([4]; feces, po, 30 mg/kg, oral administration 30 mg/kg of parent compound, read-out: % Recovery excretion, feces T 24–48 h): 0.002 ± 0.002%
dose excreted ([4]; urine, iv, 3 mg/kg, intravenous administration 3 mg/kg of parent compound, read-out: % Recovery excretion, urine T 0–24 h): 0.003 ± 0.002%
dose excreted ([4]; urine, iv, 3 mg/kg, intravenous administration 3 mg/kg of parent compound, read-out: % Recovery excretion, urine T 24–48 h): < 0.001%
dose excreted ([4]; urine, po, 30 mg/kg, oral administration 30 mg/kg of parent compound, read-out: % Recovery excretion, urine T 0–24 h): 0.001 ± 0.001%
dose excreted ([4]; urine, po, 30 mg/kg, oral administration 30 mg/kg of parent compound, read-out: % Recovery excretion, urine T 24–48 h): < 0.001%
unchanged form in fecal excretion ([4]; within 48 h after intravenous or oral administration): < 0.1%
